{
  "source": "patent US9255263B2",
  "about": "“Antithrombotic compounds” (King's College London, priority 2009, dated 2016)",
  "key": {"human thrombin": {"target": "human thrombin (Homo sapiens, UniProt P00734)", "assay": "GPBC assay: compound bound to guinea pig erythrocytes against exogenous human thrombin", "type": "cell-based", "conditions": "inhibitors 1 uM at cell-binding step, normalised for cell number", "procedure": "Method and results. Guinea Pig Blood Cells (GPBCs Harlan, UK) were extensively washed with Gelatin Veronal Buffer (GVB, Sigma G6514). A fixed volume of cell suspension (100 ul containing about 10^8 cells) was then diluted 1:1 with GVB before Compounds 1 or 2 were added; control HLL was used at the same final concentration. Cells were incubated for 10 min at ambient temperature with gentle agitation. Three washes with GVB were performed (each with at least 500 ul GVB) before discarding the supernatant and leaving cell pellet as dry as possible. Cell pellet was then resuspended with GVB and hThrombin (between 0.01 and 0.1 units) was added: reaction volume was 460 ul. Cells were incubated for 3 min at 37° C. in a waterbath and after incubation, gently pelleted by centrifugation. Supernatant (˜400 ul) was recovered and spun again to remove any residual cells. Supernatant (380 ul) was transferred to a spectrophotometer and 70 µl of GVB and 50 ul thrombin substrate (1 mM in GVB) added. The sample adsorbance was recorded at 405 nm for 20 min at 25° C.\nThe cell-based thrombin inhibitory capacity of Compounds 1 and 2 were compared by normalising for cell number in the GPBC assay. […] Both values result from using inhibitors at 1 uM final concentration of the compounds at the cell-binding step."}, "RBCs": {"system": "RBCs", "assay": "Internalisation by 2-colour FACS on RBCs", "type": "cell-based", "procedure": "To gain insight into internal versus external exposure of the compounds, cells treated with these materials were incubated with an antibody raised against hirudin (anti Hir-mAb) which cross-reacts with the HLL-1 peptide sequence. Compounds located on the outside of cells were detected by FACS using this antibody in combination with a secondary phycoerythrin (PE)-conjugated antibody, at different time points. This system enabled the ratios of externally presented compound (red PE plus green FAM fluorescence) and internalised compound (green fluorescence only) to be estimated."}, "[1]": {"assay": "Solubility observed during preparation", "type": "physicochemical", "procedure": "N-myristoyl-GSSKSPSKKKKKKPGDC(S-2-thiopyridyl)-amide (containing SEQ ID NO. 4) (Smith R, Biochem. Soc. Transactions, 30: 1037-41, 2002) was prepared by solid phase synthesis. 0.1 ml of a solution of this conjugate (10 mg/ml) in DMSO was added to a solution of HLL-1 in PBS (4.8 mM, 0.2 ml). The mixture was held at 24° C. for 1 h and the concentration of 2-thiopyridine released calculated from the absorbance at 343 nm. […] After a further 30 min at 24° C., approximately 84% of the HLL peptide had reacted. The mixture was diluted to 2 ml with PBS (slight cloudiness was observed) and then concentrated using a Vivaspin 2 3 kDa cutoff PES membrane cartridge at 2500 rpm/4° C./90 min. […] Compound 3 has a theoretical molecular weight of 4403 daltons."}, "[2]": {"system": "Human CD34-derived progenitor cells", "assay": "Human plasma recalcification (clotting) assay with prothrombotic cells", "type": "cell-based", "conditions": "for effect on cell-promoted fibrin clot formation: cells pre-incubated with agent and washed", "procedure": "Human plasma preparation: Human blood was drawn from volunteers with heparin and human plasma prepared by centrifugation, before storage at −80° C.\nHuman plasma recalcification assay (based on Lin et al Transplantation, 86(5):702-9, 2008): Human CD34-derived progenitor cells were suspended in 50 μl Tris-buffered saline and mixed with 100 μl of normal human plasma (Sigma) in glass tubes (Corning, Corning, N.Y.). Ten (10) μl of 250 mM CaCl2 in Tris-buffered saline combined with 90 μl phospholipids (Diagnostic Reagents, Oxford, UK) were added, and the tube incubated at 37° C. in a water bath—the time for a fibrin clot to form was determined in triplicate, during which time the tubes were continuously agitated by tilting. In some assays, cells were incubated with 200 uL of Compound 1 (50 uM) for 30 min at 4° C. before washing twice and inclusion in the clotting assay."}, "[3]": {"system": "DA kidney graft in pre-sensitised Lewis recipients", "type": "in vivo, rat", "from_the_text": "Rat used were inbred male DA (RT1^a) and Lewis (RT1^i) at the age of 7-8 weeks and a weight of 150-200 g. The model of hyperimmune rejection was based on renal allografts from MHC Class I disparate donors and recipients with modifications to enable life-sustaining renal transplantation. Prior to transplantation, Lewis recipients were pre-sensitised by sequential grafting of three 2×2 cm full thickness skin DA grafts placed to the recipient's dorsal back. The first two skin transplants were received biweekly, followed by a four week period during which alloantibody reached its peak (data not shown), followed by the placement of a third skin graft.\nSeven to ten days after the third skin graft, Lewis recipients received a DA kidney graft which had been perfused with different concentrations of Compound 1 (0.1-5 μM) and either flushed or not with Soltran solution (see above).\nFor the recipient preparation, a midline laparotomy was performed followed by removal of the left kidney. Microaneurysm clips (Johnson & Johnson, UK) were used to clamp the renal vein and artery. The donor kidney was transplanted orthotopically in an end to end anastomosis of the renal vein, artery and ureter using 10-0 sutures (BEAR MEDIC Corp, Japan). The donor and the recipient preparations were taking place simultaneously thus eliminating any cold ischemia. At the end of warm ischemia time, which was 30 minutes, the clips were removed and blood flow was restored to the transplanted kidney. Finally, a second native nephrectomy was performed making the transplanted kidney life-sustaining.\nAPT070 is a 23 kDa fragment of human complement receptor type 1(CR1) described in WO 98/0245. […] The inventors assessed the effects of these agents in the RATx model as a preliminary to combination studies with Compound 1. […]"}},
  "note": "Several values for one entry are separate records, joined by “and”; a condition that tells them apart may be missing. Equal values may be shown once. Where no end group is shown, it is not given here. The star is where a group is joined. Myristoyl = CCCCCCCCCCCCCC(=O)*",
  "data": [
    {"compound": "Conjugate of Anticoagulant Peptide HLL-1 with N-(α,ε bis-myristoyl lysine) SSKSPSKKDDKKPGDC-acid ({Myristoyl-K(myristoyl)}-SSKSPSKKDDKKPGDC-OH; also: C-terminal Cys disulfide-linked to HLL-1 peptide) [Compound 2]", "values": [
      {"measurement": "ratio Compound 2/Compound 1 for the specific cell inhibition capacity", "setting": "human thrombin; 0.05 U of thrombin", "result": 2.1},
      {"measurement": "ratio Compound 2/Compound 1 for the specific cell inhibition capacity", "setting": "human thrombin; 0.1 U of thrombin", "result": 1.3},
      {"measurement": "total labelled cells", "setting": "RBCs", "result": 98, "unit": "%"},
      {"measurement": "externally detected percentage", "setting": "RBCs; after 1 h", "result": "around 65%"},
      {"measurement": "cells red and green (compound displayed on outer cell membrane)", "setting": "RBCs; initially", "result": 82, "unit": "%"}
    ]},
    {"compound": "Conjugate of Anticoagulant Peptide HLL-1 with N-myristoyl-GSSKSPSKKKKKKPGDC(S-2-thiopyridyl)-amide (Myristoyl-GSSKSPSKKKKKKPGDC-NH2; not fully specified (residue 17); also: Cys S-2-thiopyridyl (activated form), conjugated to HLL-1 via Cys) [Compound 3]", "values": [
      {"measurement": "DMSO needed to maintain solubility", "setting": "[1]", "result": "> 50", "unit": "% v/v"},
      {"measurement": "solubility in aqueous buffers", "setting": "[1]", "result": "only limited solubility in aqueous buffers"}
    ]},
    {"compound": "Conjugate of Anticoagulant Peptide HLL-1 with 1,2-distearoyl-sn-glycero-3-phosphoethanolamine-N-[2-thiopropionyl(polyethyleneglycol)-2000] (FPRPGGGGDGDFEEIPEEYLGGC; not fully specified) [Compound 1]", "values": [
      {"measurement": "time for a fibrin clot to form, mean of three tubes", "setting": "[2]; cells pre-incubated with Compound 1 (50 uM) 30 min at 4° C., washed twice, re-calcified human plasma", "result": 172, "unit": "s"},
      {"measurement": "time for a fibrin clot to form, single tube", "setting": "[2]; cells pre-incubated with Compound 1 (50 uM) 30 min at 4° C., washed twice, re-calcified human plasma, listed as C.1", "result": "169 s and 172 s and 175 s"},
      {"measurement": "effect on cell-promoted fibrin clot formation", "setting": "[2]", "result": "inhibited this effect"},
      {"measurement": "survival after transplantation", "setting": "[3]; donor kidney perfused with 2 uM, flushed, controls did not survive longer than 48 h", "result": "5 to 6", "unit": "days"},
      {"measurement": "BUN deterioration", "setting": "[3]; donor kidney perfused with 2 uM, flushed, versus control", "result": "deterioration was significantly slower"},
      {"measurement": "threshold concentration for bleeding", "setting": "[3]; rat, in vivo", "result": "around 10 nM"}
    ]},
    {"compound": "CC[C@H](C)[C@H](NC(=O)[C@H](CCC(=O)O)NC(=O)[C@H](CCC(=O)O)NC(=O)[C@H](Cc1ccccc1)NC(=O)[C@H](CC(=O)O)NC(=O)CNC(=O)[C@H](CC(=O)O)NC(=O)CNC(=O)CNC(=O)CNC(=O)CNC(=O)[C@@H]1CCCN1C(=O)[C@H](CCCNC(=N)N)NC(=O)[C@@H]1CCCN1C(=O)[C@H](N)Cc1ccccc1)C(=O)N1CCC[C@H]1C(=O)N[C@@H](CCC(=O)O)C(=O)N[C@@H](CCC(=O)O)C(=O)N[C@@H](Cc1ccc(O)cc1)C(=O)N[C@@H](CC(C)C)C(=O)NCC(=O)NCC(=O)N[C@@H](CS)C(N)=O", "note": "[HLL, reference compound]", "values": [
      {"measurement": "effect on cell-promoted fibrin clot formation", "setting": "[2]", "result": "little inhibition of cell-mediated clotting"}
    ]}
  ]
}
